# Values quoted from earlier work, collected in US20130331402A1, “DOSING REGIMEN ASSOCIATED WITH LONG-ACTING INJECTABLE PALIPERIDONE ESTERS” (Janssen Pharmaceutica NV, priority 2009, published 2013).
# Conditions: depot intramuscular antipsychotics
row,t1/2 (apparent terminal half-life after multiple dosing) [h],Structure (SMILES)
1,456,CCCCCCCCCC(=O)OCCN1CCN(CC/C=C2\c3ccccc3Sc3ccc(Cl)cc32)CC1 [Clopenthixol decanoate]
2,408,CCCCCCCCCC(=O)OCCN1CCN(CC/C=C2\c3ccccc3Sc3ccc(C(F)(F)F)cc32)CC1 [Flupenthixol decanoate]
3,336,CCCCCCCCCC(=O)OCCN1CCN(CCCN2c3ccccc3Sc3ccc(C(F)(F)F)cc32)CC1 [Fluphenazine decanoate]
4,96,CCCCCCC(=O)OCCN1CCN(CCCN2c3ccccc3Sc3ccc(C(F)(F)F)cc32)CC1 [Fluphenazine enanthate]
5,170,O=C1NCN(c2ccccc2)C12CCN(CCCC(c1ccc(F)cc1)c1ccc(F)cc1)CC2 [Fluspirilene]
6,504,CCCCCCCCCC(=O)OC1(c2ccc(Cl)cc2)CCN(CCCC(=O)c2ccc(F)cc2)CC1 [Haloperidol decanoate]
7,96 to 140,CCCCCCC(=O)OCCN1CCN(CCCN2c3ccccc3Sc3ccc(Cl)cc32)CC1 [Perphenazine enanthate]
8,360 to 384,CCCCCCCCCCCCCCCC(=O)OCCC1CCN(CCCN2c3ccccc3Sc3ccc(S(=O)(=O)N(C)C)cc32)CC1 [Pipothiazine palmitate]
9,456,CCCCCCCCCC(=O)OCCN1CCN(CC/C=C2/c3ccccc3Sc3ccc(Cl)cc32)CC1 [Zuclopenthixol decanoate]

row,Structure (SMILES),t1/2 (apparent terminal half-life after multiple dosing) [h]
1,Cc1cc2c(s1)Nc1ccccc1N=C2N1CCN(C)CC1.O.O=C(O)c1cc2ccccc2c(Cc2c(O)c(C(=O)O)cc3ccccc23)c1O [Olanzapine pamoate],720

# Conditions: oral atypical antipsychotics, Table 2
row,Structure (SMILES),Terminal Half-life [h]
1,CCN1CCCC1CNC(=O)c1cc(S(=O)(=O)CC)c(N)cc1OC (stereo not drawn) [Amisulpride],12
2,"Cc1nc2n(c(=O)c1CCN1CCC(c3noc4cc(F)ccc34)CC1)CCCC2O (stereo not drawn) [Paliperidone (9-hydroxy-risperidone), Paliperidone]",25
3,O=C1NCCN1CCN1CCC(c2cn(-c3ccc(F)cc3)c3ccc(Cl)cc23)CC1 [Sertindole],70

# Next, values leading:
row,Terminal Half-life [h],Structure (SMILES)
1,47 to 68,O=C1CCc2ccc(OCCCCN3CCN(c4cccc(Cl)c4Cl)CC3)cc2N1 [Aripiprazole]
2,9 to 17,CN1CCN(C2=Nc3cc(Cl)ccc3Nc3ccccc32)CC1 [Clozapine]
3,6,OCCOCCN1CCN(C2=Nc3ccccc3Sc3ccccc32)CC1 [Quetiapine]
4,8 to 10,O=C1Cc2cc(CCN3CCN(c4nsc5ccccc45)CC3)c(Cl)cc2N1 [Ziprasidone]

# Same assay, conditions: oral typical antipsychotics, Table 1
row,Structure (SMILES),Terminal Half-life [h]
1,OCCN1CCN(CC/C=C2/c3ccccc3Sc3ccc(C(F)(F)F)cc32)CC1 [Flupenthixol],22 to 36
2,OCCN1CCN(CCCN2c3ccccc3Sc3ccc(C(F)(F)F)cc32)CC1 [Fluphenazine],14 to 24
3,O=C(CCCN1CCC(O)(c2ccc(Cl)cc2)CC1)c1ccc(F)cc1 [Haloperidol],12 to 36
4,CCc1c(C)[nH]c2c1C(=O)C(CN1CCOCC1)CC2 (stereo not drawn) [Molindone],1.5
5,O=c1[nH]c2ccccc2n1C1CCN(CCCC(c2ccc(F)cc2)c2ccc(F)cc2)CC1 [Pimozide],48 to 72
6,CSc1ccc2c(c1)N(CCC1CCCCN1C)c1ccccc1S2 (stereo not drawn) [Thioridazine],9 to 30

# Second part, the molecule after the results:
row,Terminal Half-life [h],Structure (SMILES)
1,8 to 35,CN(C)CCCN1c2ccccc2Sc2ccc(Cl)cc21 [Chlorpromazine]
2,4,CN1CCN(C2=Nc3ccccc3Oc3ccc(Cl)cc32)CC1 [Loxapine]
3,8 to 21,OCCN1CCN(CCCN2c3ccccc3Sc3ccc(Cl)cc32)CC1 [Perphenazine]
4,4 to 8,CN1CCN(CCCN2c3ccccc3Sc3ccc(Cl)cc32)CC1 [Prochlorperazine]
5,34,CN1CCN(CC/C=C2/c3ccccc3Sc3ccc(S(=O)(=O)N(C)C)cc32)CC1 [Thiothixene]
6,10 to 20,CN1CCN(CCCN2c3ccccc3Sc3ccc(C(F)(F)F)cc32)CC1 [Trifluoperazine]

# Conditions: background statement
row,water solubility,Structure (SMILES)
1,extreme low water solubility,"CCCCCCCCCCCCCCCC(=O)OC1CCCn2c1nc(C)c(CCN1CCC(c3noc4cc(F)ccc34)CC1)c2=O (racemic) [paliperidone palmitate, (±)-3-[2-[4-(6-fluoro-1,2-benzisoxazol-3-yl)-1-piperidinyl]ethyl]-6,7,8,9-tetrahydro-2-methyl-4-oxo-4H-pyrido[1,2-c]pyrimidin-9-yl hexadecanoate]"
